Key:
[1] = system: pseudomonas aeruginosa; assay: Recovery from dry inflammation in rabbit eye, pseudomonas aeruginosa; format: in vivo
Procedure: (§1) Studies were carried out with hyaluronic acid salts of the antibiotics: streptomycin, erythromycin, neomycin and gentamicin. The salts utilized are the total salts in which all of the acid groups of hyaluronic acid are salified with a basic group of the antibiotic and prepared according to the procedures described hereinabove in Examples 1, 2, 4 and 5.
(§2) For administration, preparations were utilized comprising solutions of the HY drug complex in distilled water, having concentrations suitable to the antibiotic content:
(§3) The activity of the above HY salts was compared to that given by the same antibiotics dissolved in phosphate buffer and having the same concentrations of antibiotic. The activity of the two groups of products was measured on the basis of the time necessary to suppress a dry inflammation of the rabbit eye induced by a bacterial agent.
(§4) More precisely, the dry inflammation was determined in both eyes of 24 rabbits by intraocular injection of the titered suspension of one of the following bacterial groups: pseudomonas aeruginosa, staphylococcus aureus, salmonella typhi (0.1 ml). The various saline derivatives of the antibiotics were administered (3 drops every 6 hours) into the right eye (RE) of the rabbits, while into the left eye (LE) were instilled the corresponding quantities of the antibiotics dissolved in phosphate buffer. The treatment was begun immediately after injectin of the bacterial suspension and was continued until inflammation disappeared.
(§5) In particular the following were examined: the state of the conjuntiva and the corneal epithelium, anterior chamber (presence of the Tyndall effect), the state of the iris of the posterior segment of the eye. The state of the back of the eye was examined with a Goldman lens. The presence of signs of inflammation (hyperemia, exudates, cloudiness of the liquids etc.) was registered.

[2] = system: salmonella typhi; assay: Recovery from dry inflammation in rabbit eye, salmonella typhi; format: in vivo
Procedure: as §1, §2, §3, §4, §5

[3] = system: staphylococcus aureus; assay: Recovery from dry inflammation in rabbit eye, staphylococcus aureus; format: in vivo
Procedure: as §1, §2, §3, §4, §5

[4] = system: rabbit eye; assay: Anti-inflammatory activity of triamcinolone vehicled in hyaluronic acid, dextran-induced intraocular inflammation; format: in vivo, rabbit (male New Zealand); conditions: for Evaluated Score, Conjunctiva / Evaluated Score, Cornea / Evaluated Score, Iris / Evaluated Score, Tyndall: score 0 to 3
Procedure: The experiments were carried out on male New Zealand rabbits (average weight 1.6 kg). After an adaption period of 5 days, introocular inflammation was induced in the rabbits by intraocular injection of dextran (10%, 0.1 ml). The administration was effected in both eyes under local anaesthetic with 4% Novesina, inserting the needle of the syringe at the edge of the cornea in the anterior chamber at a distance of 2 mm. The test was conducted on 10 animals.
Treatment was effected in each animal both in the right and left eyes, by instillation of 3 drops 3 times a day for 6 days in all, of the following:
a solution of triamcinolone (10% in saline) in the left eye (LE);
a solution of hyaluronic acid sodium salt, HYALECTIN fraction, (10 mg/ml)+triamcinolone phosphate (10%) in the right eye (RE).
The anti-inflammatory effect on the reaction induced by dextran was evaluated by observing the eye with a slit lamp at the following intervals: 0, 1 hr, 3 hr, 24 hr, 48 hr, 3 days, 4 days, 5 days and 6 days.
At the intervals, the eye examination evaluated the following observations:
the state of the cornea and conjunctiva for the possible presence of hypermia, edema, and especially observation of the iris which is normally sensitive to inflammatory processes after injection of inflammatory agents into the anterior chamber;
the Tyndall effect, in which the presence of opacity of varying intensity ("nubecula") is indicative of the presence of corpuscular (inflammatory) elements in the anterior chamber.
The result of the observation was expressed in terms of subjective scoring (from 0 to 3) related to the gradualness of the effect noted.

[5] = system: Bacillus subtillis ATCC 6633; assay: Antimicrobial activity of streptomycin sulphate vehicled in hyaluronic acid, agar diffusion; format: cell-based, Bacillus subtilis
Procedure: A solution of the two components (60 g hyaluronic acid sodium salt and 40 g streptomycin sulphate) was prepared and then freeze-dried.
The antimicrobial activity of the formulation of streptomycin in hyaluronic acid sodium salt, HYALASTINE fraction, was controlled by microbial assay by agar diffusion, based on the reading after a suitable period of incubation at 32° C., and on a comparison of the diameters of the microorganism's inhibition zones (Bacillus subtillis ATCC 6633) determined on the presumed concentrations of the antibiotic under examination and on the corresponding and known concentrations of the working standard.
After 18 hours of incubation of the assay plate at 32° C., it was observed that streptomycin vehicled in
The results (Table 11) were obtained by measuring the diameter of microbial inhibition zones at working concentrations of 20 and 5 UI/ml, and expressed in units of antimicrobial activity per miligram of the mixture compared to streptomycin sulphate.

[6] = day 1, pseudomonas aeruginosa, 3 drops every 6 hours, 6 eyes

## gentamicin [Gentamycin]
[1]; [6]
  percentage of eyes which did not present any signs of inflammation: 0.0%
[1]; day 2, pseudomonas aeruginosa
  percentage of eyes which did not present any signs of inflammation: 0.0%
[1]; day 3, pseudomonas aeruginosa
  percentage of eyes which did not present any signs of inflammation: 0.0%
[1]; day 4, pseudomonas aeruginosa
  percentage of eyes which did not present any signs of inflammation: 0.0%
[1]; day 5, pseudomonas aeruginosa
  percentage of eyes which did not present any signs of inflammation: 0.0%
[1]; day 6, pseudomonas aeruginosa
  percentage of eyes which did not present any signs of inflammation: 33.3%
[1]; day 7, pseudomonas aeruginosa
  percentage of eyes which did not present any signs of inflammation: 50.0%
[1]; day 8, pseudomonas aeruginosa
  percentage of eyes which did not present any signs of inflammation: 100.0%

## neomycin
[2]; day 1, salmonella typhi, 3 drops every 6 hours, 6 eyes
  percentage of eyes which did not present any signs of inflammation: 0.0%
[2]; day 2, salmonella typhi
  percentage of eyes which did not present any signs of inflammation: 0.0%
[2]; day 3, salmonella typhi
  percentage of eyes which did not present any signs of inflammation: 0.0%
[2]; day 4, salmonella typhi
  percentage of eyes which did not present any signs of inflammation: 0.0%
[2]; day 5, salmonella typhi
  percentage of eyes which did not present any signs of inflammation: 0.0%
[2]; day 6, salmonella typhi
  percentage of eyes which did not present any signs of inflammation: 0.0%
[2]; day 7, salmonella typhi
  percentage of eyes which did not present any signs of inflammation: 16.6%
[2]; day 8, salmonella typhi
  percentage of eyes which did not present any signs of inflammation: 33.3%

## CC[C@H]1OC(=O)[C@H](C)[C@@H](O[C@H]2C[C@@](C)(OC)[C@@H](O)[C@H](C)O2)[C@H](C)[C@@H](O[C@@H]2O[C@H](C)C[C@H](N(C)C)[C@H]2O)[C@](C)(O)C[C@@H](C)C(=O)[C@H](C)[C@@H](O)[C@]1(C)O [Erthromycin, erythromycin]
[3]; day 1, staphylococcus aureus, 3 drops every 6 hours, 6 eyes
  percentage of eyes which did not present any signs of inflammation: 0.0%
[3]; day 2, staphylococcus aureus
  percentage of eyes which did not present any signs of inflammation: 0.0%
[3]; day 3, staphylococcus aureus
  percentage of eyes which did not present any signs of inflammation: 0.0%
[3]; day 4, staphylococcus aureus
  percentage of eyes which did not present any signs of inflammation: 0.0%
[3]; day 5, staphylococcus aureus
  percentage of eyes which did not present any signs of inflammation: 0.0%
[3]; day 6, staphylococcus aureus
  percentage of eyes which did not present any signs of inflammation: 0.0%
[3]; day 7, staphylococcus aureus
  percentage of eyes which did not present any signs of inflammation: 16.6%
[3]; day 8, staphylococcus aureus
  percentage of eyes which did not present any signs of inflammation: 33.3%

## C[C@]12C=CC(=O)C=C1CC[C@H]1[C@@H]3C[C@@H](O)[C@](O)(C(=O)CO)[C@@]3(C)C[C@H](O)[C@@]12F [triamcinolone]
[4]; 0
  Evaluated Score, Conjunctiva: 0.0
  Evaluated Score, Cornea: 0.0
  Evaluated Score, Iris: 0.0
  Evaluated Score, Tyndall: 0.0
[4]; 1 hour
  Evaluated Score, Conjunctiva: 0.2
  Evaluated Score, Cornea: 1.0
  Evaluated Score, Iris: 0.5
  Evaluated Score, Tyndall: 1.0
[4]; 3 hours
  Evaluated Score, Conjunctiva: 0.0
  Evaluated Score, Cornea: 0.0
  Evaluated Score, Iris: 2.7
  Evaluated Score, Tyndall: 3.0
[4]; 24 hours
  Evaluated Score, Conjunctiva: 0.0
  Evaluated Score, Cornea: 0.1
  Evaluated Score, Iris: 3.0
  Evaluated Score, Tyndall: 3.0
[4]; 48 hours
  Evaluated Score, Conjunctiva: 0.0
  Evaluated Score, Cornea: 0.0
  Evaluated Score, Iris: 3.0
  Evaluated Score, Tyndall: 3.0
[4]; 3 days
  Evaluated Score, Conjunctiva: 0.0
  Evaluated Score, Cornea: 0.0
  Evaluated Score, Iris: 3.0
  Evaluated Score, Tyndall: 3.0
[4]; 4 days
  Evaluated Score, Conjunctiva: 0.0
  Evaluated Score, Cornea: 0.0
  Evaluated Score, Iris: 2.4
  Evaluated Score, Tyndall: 2.2
[4]; 5 days
  Evaluated Score, Conjunctiva: 0.0
  Evaluated Score, Cornea: 0.0
  Evaluated Score, Iris: 1.5
  Evaluated Score, Tyndall: 1.2
[4]; 6 days
  Evaluated Score, Conjunctiva: 0.0
  Evaluated Score, Cornea: 0.0
  Evaluated Score, Iris: 0.5
  Evaluated Score, Tyndall: 0.4
[4]; dextran-induced intraocular inflammation
  anti-inflammatory effect (in words): almost normal conditions are restored, with perfect limpidness of the eye by the 6th day

## [H]/N=C(/N)N[C@H]1[C@H](O)[C@@H](O)[C@H](O[C@@H]2O[C@@H](C)[C@](O)(C=O)[C@H]2O[C@@H]2O[C@@H](CO)[C@H](O)[C@@H](O)[C@@H]2NC)[C@@H](N/C(N)=N\[H])[C@@H]1O [Streptomycin, streptomycin]
[1]; [6]
  percentage of eyes which did not present any signs of inflammation: 0.0%
[1]; day 2, pseudomonas aeruginosa
  percentage of eyes which did not present any signs of inflammation: 0.0%
[1]; day 3, pseudomonas aeruginosa
  percentage of eyes which did not present any signs of inflammation: 0.0%
[1]; day 4, pseudomonas aeruginosa
  percentage of eyes which did not present any signs of inflammation: 0.0%
[1]; day 5, pseudomonas aeruginosa
  percentage of eyes which did not present any signs of inflammation: 0.0%
[1]; day 6, pseudomonas aeruginosa
  percentage of eyes which did not present any signs of inflammation: 16.6%
[1]; day 7, pseudomonas aeruginosa
  percentage of eyes which did not present any signs of inflammation: 50.0%
[1]; day 8, pseudomonas aeruginosa
  percentage of eyes which did not present any signs of inflammation: 100.0%

## [H]/N=C(/N)N[C@H]1[C@H](O)[C@@H](O)[C@H](O[C@@H]2O[C@@H](C)[C@](O)(C=O)[C@H]2O[C@@H]2O[C@@H](CO)[C@H](O)[C@@H](O)[C@@H]2NC)[C@@H](N/C(N)=N\[H])[C@@H]1O [Streptomycin sulphate, streptomycin sulphate]
[5]
  antimicrobial activity, Theoretical: 750 UI/MG
[5]; 18 hours, 32° C., 20 and 5 UI/ml
  antimicrobial activity, Effective: 750 UI/MG
[5]; values in parenthesis
  antimicrobial activity, Effective (as streptomycin sulphate content): 1000 mg/gr
  antimicrobial activity, Theoretical (as streptomycin sulphate content): 1000 mg/gr

From patent US5442053A, “Salts and mixtures of hyaluronic acid with pharmaceutically active substances, pharmaceutical compositions containing the same and methods for administration of such compositions” (Fidia, S.p.A., priority 1983, dated 1995)
